Data on one compound can be found in patent publication US10722637B2, “Cartridge and method for increasing myocardial function” (SeaStar Medical, Inc., priority 2012, dated 2020).

For experiment [1], the system named is leukocytes in human whole blood. The experiment can be described thus: In vitro whole blood assay of leukocyte activation. It is filed as cell-based. As to conditions: for CD11b: n = 3; for Lactoferrin: n = 4; for Elastase: n = 5. The protocol: Heparinized human whole blood was added to tubes with or without lipopolysaccharide (LPS) (10 μg/mL) or formyl-Methionyl-Leucyl-Phenylalanine (fMLF, 50 nM). […] The release of IL-6, IL-8, or IL-10 was measured using commercially available ELISA kits from R&D Systems. The release of elastase was measured using a commercially available ELISA kit from Bender MedSystems. The release of lactoferrin was measured using a commercially available ELISA kit from EMD Chemicals. […] Samples were incubated for various times at 37° C. and 5% CO2. CD11b activation was measured using an FITC-conjugated mouse anti-human antibody (AbD Serotech) and evaluated on an Accuri C6 flow cytometer.

The subject of experiment [2] is leukocytes in porcine blood. Briefly: Microscopic flow chamber: leukocyte interaction with polysulfone membrane. It is filed as cell-based. From the text: A custom microscopic flow chamber system was set up to enable microscopic analysis of leukocyte interaction with the SCD membrane. The flow chamber consisted of a polycarbonate housing with an inlet and outlet for perfusion. A polysulfone membrane was affixed to the polycarbonate block with a gasket which directed shear flow. The thickness of the gasket (100 μm) along with the length (2 cm) and the width of the channel (1.5 mm) determined the volume of the flow chamber. Microscopic imaging was accomplished through an optical window made up of a cover glass affixed to the bottom of the polycarbonate block. Either isolated blood or purified leukocytes were used for this study.
Isolated blood was prone to activation from excessive handling. […] Blood passed through the flow chamber at a rate of 20 μL/min with calculated shear forces between 1-10 dynes/cm^2. […]
Microscopic analysis of cell capture events was accomplished using either a Zeiss Axiovert 200M or Axio-Observer epifluorescence microscope equipped with a microscope stage-top incubator to control environmental temperature and CO2 content. Fluorescence images were acquired with either a Zeiss MRm3 or an Icc1 camera at a frequency of 1 frame/second for 5 minutes, for analysis of leukocyte/membrane interaction, and at 1 frame/minute for 1 hour sequences, for analysis of long term leukocyte attachment. […]

Regarding `O=C(O)CC(O)(CC(=O)O)C(=O)O` [Citrate], in experiment [1] (Baseline), the CD11b came out at 7.32 ± 0.47 MFI × 10^3, the Lactoferrin is given as 1.67 ± 0.29 mg/mL and the Elastase is on record as 0.94 ± 0.14 mg/mL. In experiment [1] (Stimulated (LPS, fMLF)), this compound had a CD11b of 28.72 ± 2.95 MFI × 10^3, a Lactoferrin of 3.43 ± 0.18 mg/mL and an Elastase of 0.91 ± 0.28 mg/mL. This compound registered an iCa levels in experiment [1] (citrate treated samples (1.25 mM nontreated)) of less than 0.25 mM. Moreover, the “leukocyte attachment to polysulfone membranes during shear flow” value in experiment [2] (LPS activated, low ionized calcium flow chambers) is on record as “statistically significant decrease”. Also, in experiment [2] (after addition of citrate (from 1.32±0.05)), the “blood iCa level” value was 0.32 ± 0.05 mmol/L.
